Measurements as given in BindingDB's records for doi:10.1021/jm00011a020 (H. Lundbeck, 1995).

Molecular target: Sigma-2 receptor (TMEM97) (Rattus norvegicus)
Assay: Binding affinity towards Sigma receptor site 2 in rat brain using [3H]DTG as radioligand

**Q.** Fc1ccc(-n2cc(CCCCN3CCC4(CC3)Cc3ccccc3CO4)c3ccccc32)cc1 [1'-{4-[1-(4-fluorophenyl)-1H-3-indolyl]butyl}spiro[3,4-dihydro-1H-isochromene-3,4'-(hexahydropyridine)]] was tested. Which IC50 did it give?
**A.** 1.1 nM

**Q.** Which IC50 does the source give for Fc1ccc(-n2cc(CCCCN3CCC4(CC3)OCCc3ccccc34)c3ccccc32)cc1 [1'-{4-[1-(4-fluorophenyl)-1H-3-indolyl]butyl}spiro[3,4-dihydro-1H-isochromene-1,4'-(hexahydropyridine)]] here?
**A.** 0.9 nM

**Q.** For Fc1ccc(-n2cc(CCCCN3CCC4(CC3)Cc3ccccc3O4)c3ccccc32)cc1 [1'-{4-[1-(4-fluorophenyl)-1H-3-indolyl]butyl}spiro[2,3-dihydrobenzo[b]furan-2,4'-(hexahydropyridine)]], which IC50 is on record?
**A.** 340 nM

**Q.** Fc1ccc(-n2cc(CCCCN3CCC4(CC3)Oc3ccccc3O4)c3ccccc32)cc1 [1'-{4-[1-(4-fluorophenyl)-1H-3-indolyl]butyl}spiro[benzo[d][1,3]dioxole-2,4'-(hexahydropyridine)]] was tested. Which IC50 did it give?
**A.** 270 nM

**Q.** c1ccc2c(c1)COC21CCN(CCCCC2CCCCC2)CC1 [1'-(cyclohexylbutyl)-3H-spiro[2-benzofuran-1,4'-piperidine]] was tested. Which IC50 did it give?
**A.** 0.07 nM

**Q.** With Fc1ccc(-n2cc(CCCCN3CCC4(CCOc5ccccc54)CC3)c3ccccc32)cc1 [1'-{4-[1-(4-fluorophenyl)-1H-3-indolyl]butyl}spiro[3,4-dihydro-2H-chromene-4,4'-(hexahydropyridine)]] as the compound, how does the IC50 read?
**A.** 3 nM

**Q.** With Fc1ccc(-n2cc(CCCCN3CCC4(CC3)COc3ccccc34)c3ccccc32)cc1 [1'-{4-[1-(4-fluorophenyl)-1H-3-indolyl]butyl}spiro[2,3-dihydrobenzo[b]furan-3,4'-(hexahydropyridine)]] as the compound, how does the IC50 read?
**A.** 12 nM

**Q.** How did the IC50 turn out when Fc1ccc(-n2cc(CCCCN3CCC4(CC3)COc3ccccc3C4)c3ccccc32)cc1 [1'-{4-[1-(4-fluorophenyl)-1H-3-indolyl]butyl}spiro[3,4-dihydro-2H-chromene-3,4'-(hexahydropyridine)]] was run?
**A.** 250 nM

**Q.** How did the IC50 turn out when c1ccc(CCN2CCC3(CC2)OCc2ccccc23)cc1 [1'-(2-phenylethyl)-3H-spiro[2-benzofuran-1,4'-piperidine]] was run?
**A.** 2.9 nM

**Q.** With Fc1ccc(-n2cc(CCCCN3CCC4(CC3)SCc3ccccc34)c3ccccc32)cc1 [1'-{4-[1-(4-fluorophenyl)-1H-3-indolyl]butyl}spiro[1,3-dihydrobenzo[c]thiophene-1,4'-(hexahydropyridine)]] as the compound, how does the IC50 read?
**A.** 0.14 nM

**Q.** With Fc1ccc(-n2cc(CCCCN3CCC4(CC3)OCc3c(F)cccc34)c3ccccc32)cc1 [1-[1-(4-fluorophenyl)-1H-3-indolyl]-4-[4-fluorospiro[1,3-dihydroisobenzofuran-1,4'-(hexahydropyridine)]-1-yl]butane] as the compound, how does the IC50 read?
**A.** 1.8 nM

**Q.** How did the IC50 turn out when c1ccc2c(c1)COC21CCN(CCCOC2CCCCC2)CC1 [1'-(3-cyclohexyloxypropyl)-3H-spiro[2-benzofuran-1,4'-piperidine]] was run?
**A.** 0.07 nM

**Q.** Which IC50 does the source give for Fc1ccc(-n2cc(CCCCN3CCC4(CC3)OCc3cccc(F)c34)c3ccccc32)cc1 [1-[1-(4-fluorophenyl)-1H-3-indolyl]-4-[7-fluorospiro[1,3-dihydroisobenzofuran-1,4'-(hexahydropyridine)]-1-yl]butane] here?
**A.** 0.58 nM

**Q.** How did the IC50 turn out when Fc1ccc(-n2cc(CCCCN3CCC4(CC3)COCc3ccccc34)c3ccccc32)cc1 [1'-{4-[1-(4-fluorophenyl)-1H-3-indolyl]butyl}spiro[3,4-dihydro-1H-isochromene-4,4'-(hexahydropyridine)]] was run?
**A.** 0.34 nM

**Q.** With Fc1ccc(-n2cc(CCCCN3CCC4(CC3)OCc3c(C(F)(F)F)cccc34)c3ccccc32)cc1 [1'-{4-[1-(4-fluorophenyl)-1H-3-indolyl]butyl}-4-trifluoromethylspiro[1,3-dihydroisobenzofuran-1,4'-(hexahydropyridine)]] as the compound, how does the IC50 read?
**A.** 2.6 nM
